Measurements as given in article PMC4685510, “A Cell Biologist’s Field Guide to Aurora Kinase Inhibitors” (Frontiers in Oncology, 2015).
Read-outs that look alike come from different tables or passages of the source.

What was measured:
Test in all cases: biochemical
Type in all cases: biochemical
[1] = target: 363 human kinases (including Aurora A/B/C) (Homo sapiens, UniProt Q13555); settings: CAMK2g, [ATP] 2.5 µM; for remaining activity at 0.1 µM: 100 nM; for remaining activity at 0.1 µM / remaining activity at 0.5 µM: read-out: % Enzyme Activity (relative to DMSO controls)
Excerpt: (§1) However, the Aurora A/B selectivity ratios derived from our in vitro and in vivo data can be compared to prioritize inhibitors.

[2] = target: T1, 363 human kinases (including Aurora A/B/C) (Homo sapiens, UniProt P46734); settings: MEK3; for remaining activity at 0.1 µM: 100 nM; for remaining activity at 0.1 µM / remaining activity at 0.5 µM: read-out: % Enzyme Activity (relative to DMSO controls)
T1 sequence (P46734 1-347): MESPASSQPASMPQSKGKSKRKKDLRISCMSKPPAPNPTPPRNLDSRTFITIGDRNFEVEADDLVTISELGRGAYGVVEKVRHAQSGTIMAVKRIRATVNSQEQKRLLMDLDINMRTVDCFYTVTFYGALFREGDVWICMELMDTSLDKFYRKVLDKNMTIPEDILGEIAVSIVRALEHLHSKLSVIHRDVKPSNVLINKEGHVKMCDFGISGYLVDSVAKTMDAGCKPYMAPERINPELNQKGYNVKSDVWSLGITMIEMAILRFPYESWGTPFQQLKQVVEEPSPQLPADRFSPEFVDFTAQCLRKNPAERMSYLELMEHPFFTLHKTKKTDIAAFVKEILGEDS
Excerpt: as §1

[3] = target: 363 human kinases (including Aurora A/B/C) (Homo sapiens, UniProt Q9Y572); settings: RIPK3; for remaining activity at 0.1 µM: 100 nM; for remaining activity at 0.1 µM / remaining activity at 0.5 µM: read-out: % Enzyme Activity (relative to DMSO controls)
Excerpt: as §1

[4] = target: T2, 363 human kinases (including Aurora A/B/C) (Homo sapiens, UniProt Q8TD08); settings: ERK7/MAPK15, [ATP] 10 µM; for remaining activity at 0.1 µM: 100 nM; for remaining activity at 0.1 µM / remaining activity at 0.5 µM: read-out: % Enzyme Activity (relative to DMSO controls)
T2 sequence (Q8TD08 1-544): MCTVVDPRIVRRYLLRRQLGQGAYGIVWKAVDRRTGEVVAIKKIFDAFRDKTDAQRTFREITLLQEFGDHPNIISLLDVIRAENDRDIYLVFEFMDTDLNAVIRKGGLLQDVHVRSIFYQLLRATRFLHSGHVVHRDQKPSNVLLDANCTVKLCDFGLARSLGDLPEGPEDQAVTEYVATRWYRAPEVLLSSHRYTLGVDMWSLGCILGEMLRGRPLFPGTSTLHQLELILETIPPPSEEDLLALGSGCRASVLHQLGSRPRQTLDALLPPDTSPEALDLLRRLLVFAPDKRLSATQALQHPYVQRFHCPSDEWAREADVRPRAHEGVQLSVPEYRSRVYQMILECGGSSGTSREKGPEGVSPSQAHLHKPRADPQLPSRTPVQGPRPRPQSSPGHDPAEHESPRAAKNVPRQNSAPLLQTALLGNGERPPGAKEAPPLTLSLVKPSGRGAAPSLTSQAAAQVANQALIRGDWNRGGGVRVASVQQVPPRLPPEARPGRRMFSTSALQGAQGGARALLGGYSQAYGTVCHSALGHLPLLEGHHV
Excerpt: as §1

[5] = target: 363 human kinases (including Aurora A/B/C) (Homo sapiens, UniProt Q9HBH9); settings: MNK2; for remaining activity at 0.1 µM: 100 nM; for remaining activity at 0.1 µM / remaining activity at 0.5 µM: read-out: % Enzyme Activity (relative to DMSO controls)
Excerpt: as §1

[6] = target: T3, 363 human kinases (including Aurora A/B/C) (Homo sapiens, UniProt Q8TF76); settings: Haspin; for remaining activity at 0.1 µM: 100 nM; for remaining activity at 0.1 µM / remaining activity at 0.5 µM: read-out: % Enzyme Activity (relative to DMSO controls)
T3 sequence (Q8TF76 1-798): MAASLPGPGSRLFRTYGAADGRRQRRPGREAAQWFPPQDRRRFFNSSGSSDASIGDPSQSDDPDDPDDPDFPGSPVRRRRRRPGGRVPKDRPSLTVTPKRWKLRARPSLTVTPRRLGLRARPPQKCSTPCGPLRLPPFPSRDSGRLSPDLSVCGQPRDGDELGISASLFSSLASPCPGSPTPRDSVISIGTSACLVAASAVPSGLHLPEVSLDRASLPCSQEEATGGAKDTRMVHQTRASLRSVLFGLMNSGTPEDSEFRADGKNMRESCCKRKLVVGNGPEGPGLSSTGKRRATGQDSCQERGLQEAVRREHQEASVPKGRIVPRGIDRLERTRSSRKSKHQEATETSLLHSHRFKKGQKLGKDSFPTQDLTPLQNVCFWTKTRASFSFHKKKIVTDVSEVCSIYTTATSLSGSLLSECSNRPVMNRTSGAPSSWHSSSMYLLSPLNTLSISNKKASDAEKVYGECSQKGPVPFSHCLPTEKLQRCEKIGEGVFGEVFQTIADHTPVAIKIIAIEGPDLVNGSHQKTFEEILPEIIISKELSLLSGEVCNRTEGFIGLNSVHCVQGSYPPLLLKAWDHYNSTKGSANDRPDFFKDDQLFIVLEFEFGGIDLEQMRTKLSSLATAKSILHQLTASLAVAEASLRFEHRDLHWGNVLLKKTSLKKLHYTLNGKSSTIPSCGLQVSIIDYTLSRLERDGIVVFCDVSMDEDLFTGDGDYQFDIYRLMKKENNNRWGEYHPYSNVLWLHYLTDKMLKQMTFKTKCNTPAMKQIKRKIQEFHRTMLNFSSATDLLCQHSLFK
Excerpt: as §1

[7] = target: 363 human kinases (including Aurora A/B/C) (Homo sapiens, UniProt P31751); settings: AKT2, [ATP] 100 µM; for remaining activity at 0.1 µM: 100 nM; for remaining activity at 0.1 µM / remaining activity at 0.5 µM: read-out: % Enzyme Activity (relative to DMSO controls)
Excerpt: as §1

[8] = target: 363 human kinases (including Aurora A/B/C) (Homo sapiens, UniProt P06493); settings: for remaining activity at 0.1 µM: 100 nM; for remaining activity at 0.1 µM / remaining activity at 0.5 µM: read-out: % Enzyme Activity (relative to DMSO controls); for remaining activity at 0.5 µM / % Enzyme Activity (relative to DMSO controls): 500 nM
Sequence of 363 human kinases (including Aurora A/B/C) (Homo sapiens, UniProt P06493) (P06493 whole entry): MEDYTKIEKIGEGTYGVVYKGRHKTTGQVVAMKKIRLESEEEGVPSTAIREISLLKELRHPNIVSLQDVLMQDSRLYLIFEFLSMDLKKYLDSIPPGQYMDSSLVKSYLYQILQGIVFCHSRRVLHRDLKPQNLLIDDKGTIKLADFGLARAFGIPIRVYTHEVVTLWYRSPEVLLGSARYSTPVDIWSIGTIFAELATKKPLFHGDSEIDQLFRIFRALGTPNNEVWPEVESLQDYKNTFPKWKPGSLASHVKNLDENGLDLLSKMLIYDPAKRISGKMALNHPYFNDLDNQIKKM
Excerpt: as §1

Sequence of 363 human kinases (including Aurora A/B/C) (Homo sapiens, UniProt Q9HBH9) (Q9HBH9 whole entry): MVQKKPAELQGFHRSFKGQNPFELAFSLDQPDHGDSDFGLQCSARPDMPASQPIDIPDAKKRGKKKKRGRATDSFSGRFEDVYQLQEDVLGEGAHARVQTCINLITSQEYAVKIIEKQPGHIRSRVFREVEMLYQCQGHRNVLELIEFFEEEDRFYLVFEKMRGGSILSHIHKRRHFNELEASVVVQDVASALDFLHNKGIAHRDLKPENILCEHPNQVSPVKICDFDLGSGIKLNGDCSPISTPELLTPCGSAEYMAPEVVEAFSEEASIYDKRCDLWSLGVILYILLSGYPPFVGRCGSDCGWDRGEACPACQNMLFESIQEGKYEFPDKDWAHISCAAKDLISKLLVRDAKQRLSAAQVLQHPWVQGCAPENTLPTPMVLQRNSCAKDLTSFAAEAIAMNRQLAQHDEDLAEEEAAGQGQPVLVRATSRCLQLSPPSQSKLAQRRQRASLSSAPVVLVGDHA
Sequence of 363 human kinases (including Aurora A/B/C) (Homo sapiens, UniProt P31751) (P31751 whole entry): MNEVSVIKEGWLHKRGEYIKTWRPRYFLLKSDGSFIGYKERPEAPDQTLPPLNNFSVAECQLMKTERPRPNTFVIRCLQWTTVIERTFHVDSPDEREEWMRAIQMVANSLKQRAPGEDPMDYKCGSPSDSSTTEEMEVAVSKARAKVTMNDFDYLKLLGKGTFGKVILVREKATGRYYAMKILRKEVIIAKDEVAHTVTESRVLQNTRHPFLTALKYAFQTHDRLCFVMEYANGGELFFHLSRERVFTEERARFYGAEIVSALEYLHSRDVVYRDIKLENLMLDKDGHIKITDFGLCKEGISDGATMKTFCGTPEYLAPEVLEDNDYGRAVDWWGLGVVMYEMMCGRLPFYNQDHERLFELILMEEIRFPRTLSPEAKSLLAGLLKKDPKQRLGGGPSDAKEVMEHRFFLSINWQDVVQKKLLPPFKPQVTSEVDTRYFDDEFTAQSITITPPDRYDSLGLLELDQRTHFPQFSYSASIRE
Sequence of 363 human kinases (including Aurora A/B/C) (Homo sapiens, UniProt Q9Y572) (Q9Y572 whole entry): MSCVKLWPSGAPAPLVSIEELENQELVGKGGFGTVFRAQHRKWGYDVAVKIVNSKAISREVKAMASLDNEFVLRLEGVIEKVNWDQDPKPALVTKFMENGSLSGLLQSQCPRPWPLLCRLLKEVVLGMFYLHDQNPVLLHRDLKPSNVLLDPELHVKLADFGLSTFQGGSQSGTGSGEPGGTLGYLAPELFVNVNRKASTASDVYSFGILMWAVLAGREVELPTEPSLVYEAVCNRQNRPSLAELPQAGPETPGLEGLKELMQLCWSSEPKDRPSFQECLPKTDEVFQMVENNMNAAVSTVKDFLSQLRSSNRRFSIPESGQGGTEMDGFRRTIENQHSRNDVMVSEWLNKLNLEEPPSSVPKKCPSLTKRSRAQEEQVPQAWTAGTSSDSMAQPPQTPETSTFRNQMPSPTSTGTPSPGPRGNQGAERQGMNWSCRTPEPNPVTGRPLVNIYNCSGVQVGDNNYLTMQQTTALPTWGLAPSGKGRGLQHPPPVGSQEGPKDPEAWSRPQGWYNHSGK
Sequence of 363 human kinases (including Aurora A/B/C) (Homo sapiens, UniProt Q13555) (Q13555 whole entry): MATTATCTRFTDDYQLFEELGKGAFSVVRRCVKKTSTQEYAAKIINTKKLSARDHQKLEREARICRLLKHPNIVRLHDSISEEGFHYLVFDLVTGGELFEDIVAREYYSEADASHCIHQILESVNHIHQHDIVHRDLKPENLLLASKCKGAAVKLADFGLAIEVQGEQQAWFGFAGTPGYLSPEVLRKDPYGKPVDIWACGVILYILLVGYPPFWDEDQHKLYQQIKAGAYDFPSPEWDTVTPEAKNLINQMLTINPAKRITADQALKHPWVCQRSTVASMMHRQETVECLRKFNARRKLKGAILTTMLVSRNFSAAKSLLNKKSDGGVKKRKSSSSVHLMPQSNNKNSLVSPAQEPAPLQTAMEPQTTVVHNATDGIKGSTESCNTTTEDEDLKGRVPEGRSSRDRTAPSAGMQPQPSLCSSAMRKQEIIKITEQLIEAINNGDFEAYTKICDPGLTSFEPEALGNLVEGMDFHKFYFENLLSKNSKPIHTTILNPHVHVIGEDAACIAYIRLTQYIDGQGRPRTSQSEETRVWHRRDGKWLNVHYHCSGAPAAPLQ

Structure (SMILES)	remaining activity at 0.1 µM [1] [%]	remaining activity at 0.1 µM [2] [%]	remaining activity at 0.1 µM [3] [%]	remaining activity at 0.1 µM [4] [%]	remaining activity at 0.1 µM [5] [%]	remaining activity at 0.1 µM [6] [%]	remaining activity at 0.1 µM [7] [%]	remaining activity at 0.1 µM ([8]; CDK1/cyclin A, [ATP] 10 µM) [%]	remaining activity at 0.1 µM ([8]; CDK1/cyclin B, [ATP] 20 µM) [%]	remaining activity at 0.1 µM ([8]; CDK1/cyclin E, [ATP] 20 µM) [%]	remaining activity at 0.5 µM ([1]; 500 nM) [%]	remaining activity at 0.5 µM ([2]; 500 nM) [%]	remaining activity at 0.5 µM ([3]; 500 nM) [%]	remaining activity at 0.5 µM ([4]; 500 nM) [%]	remaining activity at 0.5 µM ([5]; 500 nM) [%]	remaining activity at 0.5 µM ([6]; 500 nM) [%]	remaining activity at 0.5 µM ([7]; 500 nM) [%]	remaining activity at 0.5 µM ([8]; CDK1/cyclin A, [ATP] 10 µM) [%]	remaining activity at 0.5 µM ([8]; CDK1/cyclin B, [ATP] 20 µM) [%]	remaining activity at 0.5 µM ([8]; CDK1/cyclin E, [ATP] 20 µM) [%]	also measured
CCn1cc(-c2ccnc3[nH]c(-c4cccc(CN(C)C)c4)cc23)c(-c2ccc(NC(=O)N(C)C)cc2)n1 [GSK1070916]	94.5	105	88.3	102	96.9	86.9	95.8	106	84.6	100											
O=C(O)[C@]1(Cc2cccc(Nc3nccs3)n2)CC[C@@H](Oc2cccc(Cl)c2F)CC1 [MK-5108]	91.1	89.7	122	83.7	105	101	94.5	92.7	95.3	101	94.4	99.7	87.7	64.2	95	74	107	76.5	64	84.6	
O=C(c1cccc(Cl)c1F)N1CCN(Cc2cccc(Nc3nccs3)n2)CC1 [MK-8745]											94.3	75.7	94.8	92.2	97.9	102	96.8	86.8	79.4	94.9	% Enzyme Activity (relative to DMSO controls) ([1]; 500 nM): 92.25%; % Enzyme Activity (relative to DMSO controls) ([2]; 500 nM): 72.05%; % Enzyme Activity (relative to DMSO controls) ([3]; 500 nM): 90.81%; % Enzyme Activity (relative to DMSO controls) ([4]; 500 nM): 85.14%; % Enzyme Activity (relative to DMSO controls) ([5]; 500 nM): 97.70%; % Enzyme Activity (relative to DMSO controls) ([6]; 500 nM): 100.89%; % Enzyme Activity (relative to DMSO controls) ([7]; 500 nM): 96.21%; % Enzyme Activity (relative to DMSO controls) ([8]; CDK1/cyclin A, [ATP] 10 µM): 86.34%; % Enzyme Activity (relative to DMSO controls) ([8]; CDK1/cyclin B, [ATP] 20 µM): 78.80%; % Enzyme Activity (relative to DMSO controls) ([8]; CDK1/cyclin E, [ATP] 20 µM): 93.92%
